Assay results published in patent publication US6962929B2, “Pentafluorobenzenesulfonamides and analogs” (Tularik Inc., priority 1996, dated 2005).

Test system: HeLa cells
Assay: Inhibition of in vitro growth of HeLa cells (Alamar Blue uptake)
Assay type: cell-based, human
Settings: Homo sapiens; concentration required to inhibit by 50% the uptake of Alamar Blue by HeLa cell cultures
Description: Compounds were evaluated for their ability to inhibit in vitro the growth of HeLa cells, an immortal cell line derived from a human cervical carcinoma commonly used to evaluate the cytotoxicity of potential therapeutic agents. The following data reflect the cytotoxicity of selected examples of the present invention. The values given represent the concentration of test compound required to inhibit by 50% the uptake of Alamar Blue (Biosource International, Camarillo, Calif.) by HeLa cell cultures, which correlates directly with the overall levels of cellular metabolism in the culture, and is generally accepted as an appropriate marker of cell growth. The test was conducted according to the method of S. A. Ahmed et al. (1994) J. Immunol. Methods 170: 211-224.

| IC50 | Structure (SMILES) |
| --- | --- |
| 0.15 µM | CN(C)c1cccc(NS(=O)(=O)c2c(F)c(F)c(F)c(F)c2F)c1 [Example 2, 3-(N,N-Dimethylamino)-1-pentafluorophenylsulfonamidobenzene] |
| 0.15 µM | CCN(CC)c1ccc(NS(=O)(=O)c2c(F)c(F)c(F)c(F)c2F)cc1 [Example 12, 4-(N,N-Diethylamino)-1-pentafluorophenylsulfonamidobenzene] |
| 1.5 µM | COc1ccc(N(C)S(=O)(=O)c2c(F)c(F)c(F)c(F)c2F)cc1F [Example 30, 2-Fluoro-1-methoxy-4-(N-methylpentafluorophenylsulfonamido)benzene] |
| 10 µM | O=S(=O)(Nc1ccc2c(c1)OCO2)c1c(F)c(F)c(F)c(F)c1F [Example 4, 1,2-Methylenedioxy-4-pentafluorophenylsulfonamidobenzene] |
| 10 µM | CN(C)c1ccc(N(C)S(=O)(=O)c2c(F)c(F)c(F)c(F)c2F)cc1 [Example 17, 4-(N,N-Dimethylamino)-1-(N-methylpentafluorophenylsulfonanido)benzene] |
| 1 µM | O=S(=O)(Nc1cccc(O)c1)c1c(F)c(F)c(F)c(F)c1F [Example 9, 3-Hydroxy-1-pentafluorophenylsulfonamidobenzene] |
| < 0.05 µM | COc1ccc(NS(=O)(=O)c2c(F)c(F)c(F)c(F)c2F)cc1 [Example 8, 4-Methoxy-1-pentafluorophenylsulfonamidobenzene] |
| < 0.05 µM | CN(C)c1ccc(NS(=O)(=O)c2c(F)c(F)c(F)c(F)c2F)cc1 [Example 1, 4-(N,N-Dimethylamino)-1-pentafluorophenylsulfonamidobenzene] |

Second part, the molecule before the results:

| Structure (SMILES) | IC50 |
| --- | --- |
| COc1ccc(NS(=O)(=O)c2c(F)c(F)c(F)c(F)c2F)cc1Br [Example 31, 2-Bromo-1-methoxy4-pentafluorophenylsulfonamidobenzene] | 0.5 µM |
| COc1ccc(NS(=O)(=O)c2c(F)c(F)c(F)c(F)c2F)cc1O [Example 6, 2-Hydroxy-1-methoxy-4-pentafluorophenylsulfonamidobenzene] | < 0.05 µM |
| COc1ccc(NS(=O)(=O)c2c(F)c(F)c(F)c(F)c2F)cc1F [Example 7, 2-Fluoro-1-methoxy-4-pentafluorosulfonamidobenzene] | < 0.05 µM |
| O=S(=O)(Nc1ccc2[nH]ncc2c1)c1c(F)c(F)c(F)c(F)c1F [Example 15, 5-Pentafluorophenylsulfonamidoindazole] | 1 µM |
| O=S(=O)(Nc1ccc(N2CCOCC2)cc1)c1c(F)c(F)c(F)c(F)c1F [Example 25, 4-(1-Morpholino)-1-pentafluorophenylsulfonamidobenzene] | 10 µM |
| O=S(=O)(Nc1ccc2c(c1)OCCO2)c1c(F)c(F)c(F)c(F)c1F [Example 3, 1,2-Ethylenedioxy-4-pentafluorophenylsulfonamidobenzene] | 1.5 µM |

Same assay, conditions: concentration required to inhibit by 50% the uptake of Alamar Blue by HeLa cell cultures

| IC50 | Structure (SMILES) |
| --- | --- |
| 0.1 µM | COc1ccc(NS(=O)(=O)c2c(F)c(F)c(F)c(F)c2F)cc1Cl [Example 32, 2-Chloro-1-methoxy-4-pentafluorophenylsulfonamidobenzene] |

Test system: tubulin
Assay: Irreversible labeling of cellular protein by tritiated compounds in MCF7 cells
Assay type: binding
Settings: tritiated form; human breast carcinoma MCF7 cells
Description: Preferred compounds display specific toxicity to various types of cells. Certain compounds and compositions of the present invention exert their cytotoxic effects by interacting with cellular tubulin. For certain preferred compounds and compositions of the present invention, that interaction is covalent and irreversible. […] This protein is a key component of microtubules, which constitute the cytoskeleton and also play critical roles in many other aspects of the cell's physiology, including cell division. The labeling of tubulin by the subject preferred compounds is also shown to be dose-dependent. The site of covalent binding on tubulin is identified as Cysteine-239 on the β-tubulin chain. The same Cys-239 residue is selectively covalently modified when present in a wide variety of Cys-239 containing β-tubulin petides (e.g. Ser-234 to Met-267) provided in vitro or in vivo. One embodiment of these preferred compounds provides the binding mechanism shown in Scheme IV, namely, displacement of the para-fluorine atom by the thiol group of Cys-239.

| Structure (SMILES) | labeling of cellular protein |
| --- | --- |
| [3H]c1cc(OC)c(F)cc1NS(=O)(=O)c1c(F)c(F)c(F)c(F)c1F [Example 72, 4-[3H]-1-Fluoro-2-methoxy-5-pentafluorosulfonamidobenzene] | irreversible labeling of only one detectable cellular protein, which was found to be tubulin |

Test system: not given
Assay: not given
Settings: not given

| melting point | Structure (SMILES) |
| --- | --- |
| 144 to 145 °C | O=S(=O)(Nc1ccc(Cl)nc1)c1c(F)c(F)c(F)c(F)c1F [Example 36, 2-Chloro-5-pentafluorophenylsulfonamidopyridine] |
| 88 to 90 °C | COc1ccc(N(CCCCO)S(=O)(=O)c2c(F)c(F)c(F)c(F)c2F)cc1 [Example 56, 1-(N-(4-hydroxybutyl)pentafluorophenylsulfonamido)-4-methoxybenzene] |
| 59 to 60 °C | C=CCN(c1ccc(OC)cc1)S(=O)(=O)c1c(F)c(F)c(F)c(F)c1F [Example 50, 4-Methoxy-1-(N-(2-propenyl)pentafluorophenylsulfonamido)benzene] |
| 64 to 66 °C | C=CCCN(c1ccc(OC)cc1)S(=O)(=O)c1c(F)c(F)c(F)c(F)c1F [Example 51, 1-(N-(3-Butenyl)pentafluorophenylsulfonamido)-4-methoxybenzene] |
| 130 to 131 °C | COc1ccc(N(CC(O)CO)S(=O)(=O)c2c(F)c(F)c(F)c(F)c2F)cc1 (stereo not drawn) [Example 53, 1-(N-(2,3-Dihydroxypropyl)pentafluorophenylsulfonamido)-4-methoxybenzene] |
| 126 to 128 °C | COc1ccc(N(CCC(O)CO)S(=O)(=O)c2c(F)c(F)c(F)c(F)c2F)cc1 (stereo not drawn) [Example 54, 1-(N-(3,4-Dihydroxybutyl)pentafluorophenylsulfonamido)-4-methoxybenzene] |
| 102 to 103 °C | COc1ccc(NS(=O)(=O)c2c(F)c(F)c(F)c(F)c2F)cc1 [Example 8, 4-Methoxy-1-pentafluorophenylsulfonamidobenzene] |
| 116 to 118 °C | COc1ccc(N(CCCC(O)CO)S(=O)(=O)c2c(F)c(F)c(F)c(F)c2F)cc1 (stereo not drawn) [Example 55, 1-(N-(4,5-Dihydroxypentyl)pentafluorophenylsulfonamido)-4-methoxybenzene] |
| 96 to 97 °C | COc1ccc(N(CCCCCO)S(=O)(=O)c2c(F)c(F)c(F)c(F)c2F)cc1 [Example 57, 4-Methoxy-1-(N-(5-hydroxypentyl)pentafluorophenylsulfonamido)benzene] |

Second part, the molecule before the results:

| Structure (SMILES) | melting point |
| --- | --- |
| COc1ccc(N(CCCCCO)S(=O)(=O)c2c(F)c(F)c(F)c(F)c2F)cc1O [Example 37, 2-Hydroxy-1-methoxy-4-(N-(5-hydroxypentyl)-pentafluorophenylsulfonamido)benzene] | 118 °C |
| COc1cc(Br)c(NS(=O)(=O)c2c(F)c(F)c(F)c(F)c2F)cc1F [Example 41, 1-Bromo-4-fluoro-5-methoxy-2-pentafluorophenylsulfonamidobenzene] | 109 °C |
| COc1ccc(NS(=O)(=O)c2c(F)c(F)c(F)c(F)c2F)cc1[N+](=O)[O-] [Example 58, 4-Methoxy-3-nitro-1-pentafluorophenylsulfonamidobenzene] | 95 to 97 °C |
| COc1ccc(NS(=O)(=O)c2c(F)c(F)c(F)c(F)c2F)cc1C(F)(F)F [Example 49, 4-Methoxy-1-pentafluorophenylsulfonamido-3-trifluoromethylbenzene] | 121 to 123 °C |
| COc1ccc(NS(=O)(=O)c2c(F)c(F)c(F)c(F)c2F)cc1N [Example 59, 3-Amino-4-methoxy-1-pentafluorophenylsulfonamidobenzene] | 142 to 143 °C |
